Measurements: article PMC7027018 (BMC Chemistry, 2020)

biological target: T1, hMAO-B (Homo sapiens, UniProt P27338); test: hMAO-B inhibitory activity, Amplex Red continuous fluorometric assay; type: biochemical; settings: IC50 (MAO-A)/IC50 (MAO-B)
T1 construct: purchased Sigma-Aldrich; host or cells: insect cells (BTI-TN-5B14), recombinant baculovirus
T1 sequence (P27338 1-520): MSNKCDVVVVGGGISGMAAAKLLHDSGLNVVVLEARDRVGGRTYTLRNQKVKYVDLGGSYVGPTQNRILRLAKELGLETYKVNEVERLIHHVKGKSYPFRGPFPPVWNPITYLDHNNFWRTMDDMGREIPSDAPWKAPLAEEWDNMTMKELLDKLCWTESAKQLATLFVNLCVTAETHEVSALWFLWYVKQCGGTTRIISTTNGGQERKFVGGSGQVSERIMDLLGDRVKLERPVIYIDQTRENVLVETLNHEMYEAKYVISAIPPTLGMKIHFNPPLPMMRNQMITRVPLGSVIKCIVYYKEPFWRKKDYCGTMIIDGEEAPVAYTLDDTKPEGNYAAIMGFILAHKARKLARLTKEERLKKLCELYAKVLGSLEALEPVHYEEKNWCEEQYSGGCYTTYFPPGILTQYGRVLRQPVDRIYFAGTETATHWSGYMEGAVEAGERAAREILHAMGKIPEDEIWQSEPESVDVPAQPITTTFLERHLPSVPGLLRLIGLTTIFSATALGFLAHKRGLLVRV
Procedure: (§1) The synthesized derivatives were screened for the hMAO-A and hMAO-B inhibitory activities by using an extremely sensitive continuous fluorometric assay containing Amplex Red (10-acetyl-3, 7-dihydroxyphenoxazine) reagent. The enzymatic H2O2 was measured with and without extracts or standards.
(§2) Unless otherwise noted, the analytical grade chemicals required for synthesis and antioxidant activity procured from Sigma Aldrich, Merck, Hi-media Laboratories. The analytical assessment of the synthesized derivatives for hMAO inhibition was measured by their effects on the generation of hydrogen peroxide (H2O2) by p-tyramine (a general substrate for both MAO isoforms), utilizing the Amplex Red MAO assay kit (Sigma USA) and microsomal MAO enzymes extracted by insect cells (BTI-TN-5B14) expressed on recombinant baculovirus containing cDNA probes for MAO isoforms (Sigma-Aldrich USA) were used as source for the two microsomal MAO isoforms. The progress of the reaction was cheeked through thin layer chromatography TLC executed on 0.25 mm pre-coated plates with silica gel procured from Merck, and the spots were envisaged in iodine chamber and UV cabinet, in mobile media TLC-hexane:toluene:ethyl acetate (1:1:1). Melting points were recorded on Sonar melting point apparatus in open capillary tubes. The nuclear magnetic resonance (NMR) spectra 1H NMR and ^13C NMR spectra were determined in DMSO and deuterated CDCl3 respectively on a spectrometer (Model: Bruker Avance II 400 NMR). Coupling constants J are in hertz (Hz) (Additional file 1). Spectral data for infrared (IR) was confirmed on Perkin Elmer FTIR spectrophotometer by using KBr pellets technique.
(§3) Human MAO-A and -B recombinant enzymes (Sigma-Aldrich) 5 mg ml^−1 were pre-aliquoted and placed at − 70 °C. The interactions of the titled compounds with hMAO isoforms were evaluated through a fluorimetric method based on the H2O2 formation rendered by MAO isoforms was identified by utilizing the non-fluorescent, extremely susceptible and stable probe Amplex®-Red reagent (10-acetyl-3,7-dihydroxyphenoxazine), which reacts with H2O2 in the existence of horseradish peroxidase to generate resorufin which is a fluorescent component. […] By the incubation time, the reaction was initiated via the addition of 200 μM Amplex Red reagent, 1 mM p-tyramine (general substrate for both MAO isoforms) and 1 U ml^−1 horseradish peroxidase (HRP). […] The calculation of specific fluorescence emission (used to obtain the final results) was carried out by subtraction of background action that was identified by the cuvettes comprising all reagents except the MAO isoforms, which were changed by a sodium phosphate buffer solution. The preparation of stock solutions and all reagents was done newly each day in deionized water and kept at − 20 °C. Data were processed in Microsoft Excel, to calculate IC50 values.
(§4) The enzymatic kinetic factors maximum reaction rate (Vmax) and Michaelis–Menten constant (Km) were computed by GraphPad Prism Software 6.02 (San Diego, CA, USA). The IC50 values were determined by nonlinear regression best fit model of normalized response with variable slope. Lineweaver–Burk plot was obtained from Michaelis–Menten data. The Michaelis–Menten constant (Km) is the concentration of […]. Relative selectivity (RS) folds were defined by the ratio of hMAO-A IC50 to hMAO-B IC50. The inhibition mechanism was identified by the double reciprocal plot (Lineweaver–Burk curves) by plotting the inverse of the substrate concentration (1/S) as a function against the inverse of initial velocity (1/V).

Selectivity index	Compound
1.675	COc1cc(C=O)ccc1OC(=O)/C=C/C=C/c1ccc2c(c1)OCO2 [Compound 17b]
1.637	CC1CCC(C(C)C)C(OC(=O)/C=C/C=C/c2ccc3c(c2)OCO3)C1 (centres unmarked) [Compound 11]
0.371	O=C(/C=C/C=C/c1ccc2c(c1)OCO2)Oc1ccc2ccc(=O)oc2c1 [Compound 13]
1.512	Cc1ccc(C(C)C)cc1OC(=O)/C=C/C=C/c1ccc2c(c1)OCO2 [Compound 17a]

same assay, conditions: recombinant hMAO-B, p-tyramine substrate, Amplex Red; mean SEM

IC50 [µM]	Compound
17.9 ± 0.038	COc1cc(C=O)ccc1OC(=O)/C=C/C=C/c1ccc2c(c1)OCO2 [Compound 17b]
20.59 ± 0.006	CC1CCC(C(C)C)C(OC(=O)/C=C/C=C/c2ccc3c(c2)OCO3)C1 (centres unmarked) [Compound 11]
65.99 ± 0.002	O=C(/C=C/C=C/c1ccc2c(c1)OCO2)Oc1ccc2ccc(=O)oc2c1 [Compound 13]
21.37 ± 0.007	Cc1ccc(C(C)C)cc1OC(=O)/C=C/C=C/c1ccc2c(c1)OCO2 [Compound 17a]

biological target: T2, hMAO-A (Homo sapiens, UniProt P21397); test: hMAO-A inhibitory activity, Amplex Red continuous fluorometric assay; type: biochemical; settings: recombinant hMAO-A, p-tyramine substrate, mean SEM
T2 construct: purchased Sigma-Aldrich; host or cells: insect cells (BTI-TN-5B14), recombinant baculovirus
T2 sequence (P21397 1-527): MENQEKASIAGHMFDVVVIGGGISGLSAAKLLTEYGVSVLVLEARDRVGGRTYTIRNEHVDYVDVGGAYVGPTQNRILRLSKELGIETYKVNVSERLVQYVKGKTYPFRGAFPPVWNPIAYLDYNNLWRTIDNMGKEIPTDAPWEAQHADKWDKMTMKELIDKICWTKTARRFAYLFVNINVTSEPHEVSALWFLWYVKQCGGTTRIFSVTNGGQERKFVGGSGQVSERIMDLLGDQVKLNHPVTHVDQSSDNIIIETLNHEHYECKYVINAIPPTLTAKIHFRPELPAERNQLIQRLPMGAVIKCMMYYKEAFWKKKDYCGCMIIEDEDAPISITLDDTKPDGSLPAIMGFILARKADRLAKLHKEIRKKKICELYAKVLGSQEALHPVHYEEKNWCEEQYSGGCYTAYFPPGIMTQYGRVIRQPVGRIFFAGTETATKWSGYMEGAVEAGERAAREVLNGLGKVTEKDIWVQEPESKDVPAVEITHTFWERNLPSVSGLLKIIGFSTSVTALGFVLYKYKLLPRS
Procedure: as §1, §2, §3, §4

IC50 [µM]	Compound
30 ± 0.005	COc1cc(C=O)ccc1OC(=O)/C=C/C=C/c1ccc2c(c1)OCO2 [Compound 17b]
33.72 ± 0.071	CC1CCC(C(C)C)C(OC(=O)/C=C/C=C/c2ccc3c(c2)OCO3)C1 (centres unmarked) [Compound 11]
24.53 ± 0.002	O=C(/C=C/C=C/c1ccc2c(c1)OCO2)Oc1ccc2ccc(=O)oc2c1 [Compound 13]
32.33 ± 0.043	Cc1ccc(C(C)C)cc1OC(=O)/C=C/C=C/c1ccc2c(c1)OCO2 [Compound 17a]

test system: not listed separately; test: Hydrogen peroxide scavenging (H2O2) assay; settings: absorption at 230 nm, 10 min incubation, phosphate buffer pH 7.4; mean ± SEM, n = 3
Procedure: H2O2 is quickly decomposed into oxygen and water and this could generate hydroxyl radicals (OH) that may commence DNA damage in the body and lipid peroxidation. The hydrogen peroxide inhibitory activity of newly synthesized compounds was assessed by the technique illustrated by Nakano and coworkers with some modifications. In phosphate buffer (40 mM pH 7.4) the solution of hydrogen peroxide (40 mM) was prepared and different concentrations of titled compounds (05–80 μg ml^−1) were added to H2O2 solution (2 ml). The concentration of hydrogen peroxide is determined by absorption at 230 nm using a spectrophotometer after 10 min of incubation. Blank reading was noted of phosphate buffer without H2O2. The percentage of hydrogen peroxide inhibition was anticipated by the formula [(Ab − At)/[…]] × 100, where Ab is the absorbance of the control and At is the absorbance of compounds/standard taken as L-ascorbic acid (05–80 μg ml^−1). UV/Vis Epoch ELISA reader was used to measure as a decrease in absorbance in the 96 wells (Table 5).

IC50 [µM]	Compound
10.09 ± 0.013	COc1cc(C=O)ccc1OC(=O)/C=C/C=C/c1ccc2c(c1)OCO2 [Compound 17b]
17.57 ± 0.091	CC1CCC(C(C)C)C(OC(=O)/C=C/C=C/c2ccc3c(c2)OCO3)C1 (centres unmarked) [Compound 11]
11.35 ± 0.004	O=C(/C=C/C=C/c1ccc2c(c1)OCO2)Oc1ccc2ccc(=O)oc2c1 [Compound 13]
23.76 ± 0.021	Cc1ccc(C(C)C)cc1OC(=O)/C=C/C=C/c1ccc2c(c1)OCO2 [Compound 17a]

test system: not listed separately; test: DPPH radicals scavenging activity; settings: absorbance at 517 nm, 30 min at 37 °C; mean ± SEM, n = 3
Text: Besides their inhibitory action on hMAO the antioxidant potential of synthesized compounds was investigated using 1,1-Diphenyl-2-picrylhydrazyl (DPPH) assay. DPPH was utilized as a stable free radical because free radicals simulate reactive nitrogen and oxygen species distressing neurological structure.
The DPPH method is one of the most proficient techniques to assess the radical-scavenging action by a chain-breaking mechanism. […] DPPH is stable free radical on room temperature, however on acceptance of a hydrogen/electron radical it turns into a stable diamagnetic molecule. The scavenging activity of DPPH radical is assessed by the reduction in its optical density at 5l7 nm, rendered by antioxidants. This phenomenal feature of DPPH is due to the reaction among antioxidant compounds and radicals, leads to the scavenging of the free radical via donated hydrogen. It manifested visually as the color bleaches from purple to yellow. Therefore, DPPH is generally utilized as a substrate to estimate the ant oxidative potential. Different concentrations of around […] (25, 50, 75, and 100) µg ml^−1 of the titled derivatives were suspended in methanol and mixed with 5 ml of a 0.004% methanol solution of DPPH. Subsequently the all dilutions were subjected to incubation for 30 min at 37 °C temperature; finally, at 517 nm the absorbance was measured against a blank. Ascorbic acid was utilized as a reference while and all the experiments were performed in triplicate. […] DPPH free radical scavenging of compounds was calculated as scavenging activity for DPPH (%) = [(Ac − At)/Ac] × 100 Where Ac is the absorbance of the control reaction At is the absorbance of the test compound. The absorbance was measured with UV/Vis Epoch ELISA reader at 517 nm, and antioxidant activity was measured as a decrease in absorbance of DPPH·.

IC50 [µM]	Compound
8.281 ± 0.001	COc1cc(C=O)ccc1OC(=O)/C=C/C=C/c1ccc2c(c1)OCO2 [Compound 17b]
14.15 ± 0.011	CC1CCC(C(C)C)C(OC(=O)/C=C/C=C/c2ccc3c(c2)OCO3)C1 (centres unmarked) [Compound 11]
10.7 ± 0.035	O=C(/C=C/C=C/c1ccc2c(c1)OCO2)Oc1ccc2ccc(=O)oc2c1 [Compound 13]
17.15 ± 0.026	Cc1ccc(C(C)C)cc1OC(=O)/C=C/C=C/c1ccc2c(c1)OCO2 [Compound 17a]
